This data set in a line: Empiric porcine aortic contrast enhancement, dynamic CT at fixed mid-abdominal aortic level after i.v. injection. Type of data set: in vivo, pig. The protocol:
In order to test the mathematical solutions, a porcine study was conducted. All animal care and procedures performed were approved by the Institutional Animal Study Committee. […] Each session was separated by at least two days. Two pigs had all their sessions within a week, while the other two pigs had their first two and last sessions delays 4-5 weeks, which results in an increase in their weight to 35-40 kg in their last session. In each session, the pig was anesthetized, intubated, and underwent scanning for three or four sets of images obtained in random order. During scanning, each pig was ventilated with oxygen and low tidal volume to minimize breathing motion artifact. […] Each set of scans were 45-60 minutes apart to minimize the effect of prior contrast administration. All CT scanning was performed with a Somatom Plus-S scanner (Siemens Medical Systems, […].) using a one-second scanning time and a one-second interscan delay. Three types of injection schemes were tested: uniphasic, biphasic, and multiphasic. Biphasic injections were performed by a prior art power injector which was used in routine clinical CT scanning while uniphasic and multiphasic injections were conducted with a power injector which was invented for achieving the required protocols. This power injector was capable of delivering contrast medium in various uniphasic or multiphasic injection algorithms, as is explained in greater detail below. The multiphasic injection rate is determined by an initial injection rate and an exponential decay coefficient, as shown in FIG. 3. […] Most injections were performed with the initial injection rate of 2 mL/s. […] Three differential exponential decay coefficients (0.007, 0.017, 0.026) were tested. […] These were the three smallest discrete increments allowed in the prototype of the inventive power injector. Decay coefficient higher than 0.03 was not used because it was evident that a further increase in the coefficient would deviate further away from uniform vascular enhancements. A uniphasic injection was determined as being equivalent to a zero exponential decay coefficient where the injection rate remains constant at an initial injection rate throughout the injection duration. […] Approximately half of the total contrast volume was injected in each phase of the biphasic injections. […] Attenuation values of the aorta were measured from post-contrast scans (at the same level as the pre-contrast scans) using a circular region of interest (ROI) at the center of the aorta. Contrast enhancement was calculated as the absolute different in attenuation value between the pre- and post-contrast scans. For the data analysis, the injection duration (ID), the magnitude of peak aortic enhancement (PA), and the uniformity of enhancement (the duration of the enhancement achieved with 90% of the peak: 90% DCE) were evaluated. Means and standard deviations were also computed. The results are now explained.

The mark [1] stands for this setting: 25 kg pig, 50 mL of 282 mgI/mL contrast medium, uniphasic 2 mL/sec.
The mark [2] stands for this setting: four pigs, 50 mL, 2 mL/s initial injection rate, decay constant 0.017.
[3] abbreviates: four pigs, 70 mL, 2 mL/s initial injection rate, decay constant 0.017.

Consider `CNC(=O)c1c(I)c(NC(C)=O)c(I)c(C(=O)O)c1I.CNC[C@H](O)[C@@H](O)[C@H](O)[C@H](O)CO` [contrast medium, iothalmate meglumine], for which, under setting [1], the “magnitude of the peak aortic enhancement (empiric)” value was found to be 250 HU and the “time to the peak aortic enhancement (empiric)” value was 26 s. Where the note is “50 mL and 70 mL, 2 mL/s, decay constant 0.017”, the “pattern of aortic enhancement, multiphasic vs uniphasic injection” value is “more prolonged and uniform vascular enhancement than uniphasic injections”. The “pattern of aortic enhancement, biphasic injection” value (70 mL, 2 mL/s for 17 sec then 1.0 mL/s for 36 sec) was “two enhancement peaks with a valley in between”. Besides, under setting [2], the “increase of 90% DCE (duration of enhancement achieved with 90% of the peak), multiphasic vs uniphasic injection, mean” value came to 81% and the “reduction of peak aortic enhancement (PA), multiphasic vs uniphasic injection, mean” value came to 19%. Further, under setting [3], the “decrease of peak aortic enhancement (PA), multiphasic vs uniphasic injection” value is on record as 18% and the “increase of 90% DCE, multiphasic vs uniphasic injection” value turned out to be 94%. In addition, for the setting “two pigs (25 kg, 40 kg), compared with decay constants 0.007 and 0.026”, the “pattern of aortic enhancement, multiphasic exponential injection, decay constant 0.017” value is “more uniform than with other injection protocols”.

The record behind these values is patent publication US6470889B1 (B.H.B., L.C., priority 1999, dated 2002).
